Source: patent US7388022B2, “Polysubstituted 1,1-pyridylaminocyclopropanamine compounds” (priority 2005, dated 2008)
Structures can show the parent of a compound that is named as a salt. Where two headings read alike, the source gives them in different places.

How the values were obtained:
[1] = system: release of acetylcholine in the prefrontal cortex; assay: In vivo measurement of the release of acetylcholine by intra-cortical microdialysis in the conscious Wistar rat; set-up: dose or concentration left out as unconfirmed; settings: one hour after administration
Description: The systemic administration of nicotine and nicotinic agonists causes an increase, in vivo, of acetylcholine in various regions of the brain (Neurochem. Res., 1996, 21, 1181-1186; Eur. J. Pharmacol., 1998, 351, 181-188; Br. J. Pharmacol., 1999, 127, 1486-1494). A microdialysis probe is implanted in the median prefrontal cortex of male Wistar rats. Six or seven days after they have been implanted, the probes are perfused with Ringer's solution (NaCl 147 mM, KCl 2.7 mM, CaCl2 1.2 mM, MgCl2 1 mM, neostigmine 20 nM) at a flow rate of 1 μl/min, the animal being free to move. After 2 hours in the animal quarters, the product under test is administered by the intraperitoneal route. A group of control animals receives the solvent used for the product. The dialysates (30 μl) are then collected every 30 minutes for 4 hours in order to measure the cortical extra-synaptic concentrations of acetylcholine by means of HPLC with amperometric detection. The results are expressed in pg of acetylcholine/dialysate, and inter-group comparisons are carried out by means of variance analysis using 2 factors (treatment×time), with measurements being repeated over time.

[2] = system: abdominal cramps caused by PBQ; assay: Abdominal contractions induced by phenyl-p-benzoquinone (PBQ) in the NMRI mouse; format: in vivo; settings: 10 mg/kg IP
Description: Intraperitoneal administration of an alcoholic solution of PBQ causes abdominal cramps in the mouse (Proc. Soc. Exp. Biol., 1957, 95, 729-731). The cramps are characterised by repeated contractions of the abdominal musculature, accompanied by extension of the hind limbs. Most analgesics antagonise these abdominal cramps (Brit. J. Pharmacol. Chem., 1968, 32, 295-310). At t=0 min., the animals are weighed and the compound being studied is administered by the IP route. A group of control animals is given the solvent used for the compound. At t=30 min., an alcoholic solution of PBQ (0.2%) is administered by the IP route in a volume of 0.25 ml/mouse. Immediately after administration of the PBQ, the animals are placed in cylinders of plexiglass (L=19.5 cm; I.D.=5 cm). From t=35 min. to t=45 min., the animals' reaction is observed and the experimenter notes the total number of abdominal cramps per animal. The results are expressed as the percentage inhibition of the number of abdominal cramps measured in the control animals, at the active dose of the compound studied.

[3] = biological target: T1, type α4β2 central nicotinic receptors (Rattus norvegicus, UniProt P09483+P12390); assay: Displacement of binding of [3H]-cytisine on type α4β2 nicotinic receptors of rat brain
T1 construct: from tissue; host or cells: rat brain membranes
Description: This study, carried out according to the technique described in Molec. Pharmacol., 1990, 39; 9-12, is aimed at determining the affinity of compounds of the present invention for type α4β2 central nicotinic receptors.
Membranes (250 μg/ml) of rat brain are incubated (2 hours, 20° C.) in the presence of a series of concentrations (0.01-10 μM) of each compound of the present invention (diluted starting from a 10 mM stock solution in DMSO) and [^3H]-cytisine (S.A.: 1184 GBq/mmol: 2 nM) in phosphate buffer (NaH2PO4 20 mM, pH 7.4); final volume: 250 μl. The non-specific binding is determined by incubating membranes in the presence of 10 μM of (−)nicotine. The affinity of the compounds of the present invention for type α4β2 central nicotinic receptors is characterised by determination of the Ki.

[4] = system: social recognition (memorisation); assay: Social recognition in the Wistar rat; format: in vivo; settings: 3 mg/kg IP, 2 hours after administration
Text: Initially described in 1982 (J. Comp. Physiol., 1982, 96, 1000-1006), the social recognition test has subsequently been proposed by various authors (Psychopharmacology, 1987, 91, 363-368; Psychopharmacology, 1989, 97, 262-268) for studying the mnemocognitive effects of new compounds. The test is based on the natural expression of the olfactory memory of the rat and its natural tendency to forget and allows evaluation of memorisation, by recognition of a young congeneric animal, by an adult rat. A young rat (21 days), taken at random, is placed for 5 minutes in the cage housing an adult rat. With the aid of a video device, the experimenter observes the social recognition behaviour of the adult rat and measures its overall duration. The young rat is then removed from the adult rat's cage and is placed in its own cage until the second introduction. The adult rat is given the compound under test by the intraperitoneal route and, after 2 hours, is again brought into the presence (5 minutes) of the young rat. The social recognition behaviour is then observed again and its duration measured. The assessment criterion is the difference (T2−T1), expressed in seconds, between the “recognition” times of the 2 encounters.

[5] = system: object recognition (memorisation); assay: Object recognition in the Wistar rat; format: in vivo; settings: 0.3 mg/kg PO, 2nd session 24 hours later
Text: The object recognition test in the Wistar rat (Behav. Brain Res., 1988, 31, 47-59) is based on the spontaneous exploratory activity of the animal and has the characteristics of episodic memory in humans. Sensitive to ageing (Eur. J. Pharmacol., 1997, 325, 173-180), as well as to cholinergic dysfunctions (Pharm. Biochem. Behav., 1996, 5(2), 277-283), this memory test is based on the differential exploration of 2 objects of fairly similar size, one familiar and the other new. Before the test, the animals are accustomed to the environment (enclosure without object). During a 1st session, the rats are placed (for 3 minutes) in an enclosure containing 2 identical objects. The duration of exploration of each object is measured. During the second session (3 minutes), 24 hours later, 1 of the 2 objects is replaced by a new object. The duration of exploration of each object is measured. The assessment criterion is the difference Delta, expressed in seconds, between the exploration times of the new object and the familiar object during the 2nd session.

[6] = biological target: type α7 central nicotinic receptors (Rattus norvegicus, UniProt Q05941); assay: biochemical; format: binding
Chain of type α7 central nicotinic receptors (Q05941 23-502): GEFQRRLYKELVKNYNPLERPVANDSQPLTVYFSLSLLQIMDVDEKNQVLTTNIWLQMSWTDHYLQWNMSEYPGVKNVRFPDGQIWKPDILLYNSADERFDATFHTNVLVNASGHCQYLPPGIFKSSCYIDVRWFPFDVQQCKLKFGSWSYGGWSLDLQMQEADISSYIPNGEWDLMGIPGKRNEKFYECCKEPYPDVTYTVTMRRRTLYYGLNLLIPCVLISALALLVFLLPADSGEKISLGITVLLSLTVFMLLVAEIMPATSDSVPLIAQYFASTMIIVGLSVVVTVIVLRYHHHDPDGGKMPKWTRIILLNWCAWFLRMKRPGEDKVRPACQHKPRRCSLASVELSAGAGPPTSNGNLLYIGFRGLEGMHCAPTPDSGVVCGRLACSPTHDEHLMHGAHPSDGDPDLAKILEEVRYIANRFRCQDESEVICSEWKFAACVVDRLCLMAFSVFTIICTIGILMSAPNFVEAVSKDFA

T1 sequence (P09483 31-630): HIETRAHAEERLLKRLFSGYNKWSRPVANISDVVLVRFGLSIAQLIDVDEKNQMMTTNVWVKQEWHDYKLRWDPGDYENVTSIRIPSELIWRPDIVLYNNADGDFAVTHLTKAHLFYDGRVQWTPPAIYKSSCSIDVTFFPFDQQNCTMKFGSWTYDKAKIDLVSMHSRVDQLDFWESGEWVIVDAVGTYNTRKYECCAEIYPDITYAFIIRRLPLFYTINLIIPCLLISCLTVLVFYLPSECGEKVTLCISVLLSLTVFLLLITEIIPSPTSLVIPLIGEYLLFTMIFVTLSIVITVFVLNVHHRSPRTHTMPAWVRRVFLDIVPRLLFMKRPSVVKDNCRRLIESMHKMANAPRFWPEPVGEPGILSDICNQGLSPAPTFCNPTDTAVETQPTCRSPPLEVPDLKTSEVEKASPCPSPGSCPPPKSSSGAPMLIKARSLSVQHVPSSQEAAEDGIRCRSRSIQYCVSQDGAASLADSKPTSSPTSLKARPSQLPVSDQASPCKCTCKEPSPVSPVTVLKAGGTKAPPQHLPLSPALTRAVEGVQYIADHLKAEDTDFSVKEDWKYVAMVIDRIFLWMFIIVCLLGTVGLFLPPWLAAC
T1 sequence (P12390 25-500): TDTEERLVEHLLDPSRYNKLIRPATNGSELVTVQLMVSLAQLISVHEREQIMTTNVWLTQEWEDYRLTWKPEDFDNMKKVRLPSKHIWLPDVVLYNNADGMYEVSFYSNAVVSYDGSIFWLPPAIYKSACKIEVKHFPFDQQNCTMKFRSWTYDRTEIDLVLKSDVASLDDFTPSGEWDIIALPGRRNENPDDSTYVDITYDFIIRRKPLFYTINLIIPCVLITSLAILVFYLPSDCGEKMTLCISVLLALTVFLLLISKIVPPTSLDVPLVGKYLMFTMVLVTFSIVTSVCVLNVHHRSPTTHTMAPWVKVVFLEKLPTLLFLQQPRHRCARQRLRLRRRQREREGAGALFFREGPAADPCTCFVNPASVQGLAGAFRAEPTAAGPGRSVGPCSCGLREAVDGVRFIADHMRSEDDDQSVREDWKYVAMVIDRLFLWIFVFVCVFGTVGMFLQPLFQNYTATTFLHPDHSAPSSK

`CNC1(CN(C)c2ccc(Br)nc2)CC1.O=C(O)/C=C/C(=O)O` showed a melting point of 146 to 150 °C.

For `CNC1(CNc2ccc(C)nc2)CC1.Cl.Cl`, the melting point was 230 to 232 °C.

Work on `CNC1(CN(C)c2ccc(C)nc2)CC1.Cl.Cl` yielded a melting point of 112 to 115 °C.

Compound `CN(C)C1(CNc2ccc(Cl)nc2)CC1.Cl.Cl` has a melting point of 158 to 160 °C.

`CN(CC1(N(C)C)CC1)c1ccc(Cl)nc1.Cl.Cl` showed a melting point of 163 to 166 °C.

With `CNC1(CN(Cc2ccccc2)c2ccc(Cl)nc2)CC1.Cl.Cl` the melting point was 156 to 157 °C.

`CN(C)C1(CN(Cc2ccccc2)c2ccc(Cl)nc2)CC1.Cl` showed a melting point of 190 to 192 °C.

In the case of `CN(C)C1(CNc2cccnc2)CC1.Cl.Cl`, the melting point is reported as 208 to 210 °C.

Compound `CN(CC1(N)CC1)c1cccnc1.Cl.Cl` has a melting point of 218 to 222 °C.

Compound `CN(CC1(N(C)C)CC1)c1cccnc1.Cl.Cl` has a melting point of 198 to 201 °C.

`CNC1(CN(C)c2ccc(Cl)nc2)CC1` (as salt: hydrochloride) [Example 10, 6-Chloro-N-methyl-N-{[1-(methylamino)cyclopropyl)methylpyridin-3-aminedihydrochloride] gave a melting point of 133 to 136 °C.

For `CNC1(CNc2cccnc2)CC1.Cl.Cl` [Example 1, N-{[1-(Methylamino)cyclopropyl]methyl}pyridin-3-amine dihydrochloride], the “increase in the release of acetylcholine in the prefrontal cortex” value [1] was “+70%”, the melting point was 190 to 195 °C and the “reduction of the number of abdominal cramps caused by PBQ” value (“reduction” for short) [2] was −50%. The Ki [3] was 34 nM, the “difference (T2−T1) between recognition times” value [4] was 36 s and the “difference Delta between exploration times of new and familiar object” value [5] was 9 s.

For `CNC1(CN(C)c2cccnc2)CC1.Cl.Cl` [Example 2, N-Methyl-N-{[1-(methylamino)cyclopropyl]methyl}pyridin-3-amine dihydrochloride], the “increase in the release of acetylcholine in the prefrontal cortex” value [1] was “+80%”, the melting point was 180 to 184 °C and the “reduction” value [2] was −76%. The Ki [3] was 15 nM, the Ki [6] was 8300 nM and the “difference (T2−T1) between recognition times” value [4] was 29 s. The “difference Delta between exploration times of new and familiar object” value [5] was 4 s.

In the case of `Cl.Cl.NC1(CNc2cccnc2)CC1` [Example 4, N-[(1-Aminocyclopropyl)methyl]pyridin-3-amine dihydrochloride], the melting point is reported as 195 to 199 °C and the “difference (T2−T1) between recognition times” value [4] is reported as 19 s.

In the case of `CNC1(CNc2ccc(Cl)nc2)CC1.Cl.Cl` [Example 9], the “reduction” value [2] is reported as −52%.

With `CNC1(CN(C)c2ccc(Cl)nc2)CC1` [Example 10, 6-Chloro-N-methyl-N-{[1-(methylamino)cyclopropyl)methylpyridin-3-aminedihydrochloride] the “reduction” value [2] was −69% and the Ki ([3]; [3H]-cytisine, rat brain membranes, read-out: Ki, type α4β2 central nicotinic receptors) was 16 nM.
